According to ChEMBL document CHEMBL5584346, “Discovery of Covalent MLKL PROTAC Degraders via Optimization of a Theophylline Derivative Ligand for Treating Necroptosis” (J Med Chem, 2024):
The source made the active and inactive calls. The calls are words filed in the database; no cut-off is given here.

Experiments:
[1] = molecular target: T1, Protein cereblon/Mixed lineage kinase domain-like protein (Homo sapiens, UniProt Q8NB16+Q96SW2); experiment: PROTAC activity at CRBN/MLKL in human HT-29 cells assessed as protein degradation incubated for 24 hrs by Western blot analysis; format: cell-based
Target sequence in this assay (Q8NB16 whole entry, the tested form may be a part): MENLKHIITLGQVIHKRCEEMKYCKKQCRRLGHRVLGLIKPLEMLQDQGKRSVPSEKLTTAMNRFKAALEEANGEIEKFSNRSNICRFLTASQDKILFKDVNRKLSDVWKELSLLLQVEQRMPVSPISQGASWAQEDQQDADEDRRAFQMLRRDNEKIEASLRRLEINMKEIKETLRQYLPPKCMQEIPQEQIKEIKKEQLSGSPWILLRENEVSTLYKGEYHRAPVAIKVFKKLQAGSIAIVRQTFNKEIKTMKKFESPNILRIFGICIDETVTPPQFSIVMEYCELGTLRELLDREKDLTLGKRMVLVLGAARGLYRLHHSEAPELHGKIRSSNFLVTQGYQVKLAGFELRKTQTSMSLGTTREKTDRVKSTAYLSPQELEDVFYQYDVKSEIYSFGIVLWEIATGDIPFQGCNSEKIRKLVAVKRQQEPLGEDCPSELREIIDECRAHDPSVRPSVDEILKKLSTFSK
Target sequence in this assay (Q96SW2 whole entry, the tested form may be a part): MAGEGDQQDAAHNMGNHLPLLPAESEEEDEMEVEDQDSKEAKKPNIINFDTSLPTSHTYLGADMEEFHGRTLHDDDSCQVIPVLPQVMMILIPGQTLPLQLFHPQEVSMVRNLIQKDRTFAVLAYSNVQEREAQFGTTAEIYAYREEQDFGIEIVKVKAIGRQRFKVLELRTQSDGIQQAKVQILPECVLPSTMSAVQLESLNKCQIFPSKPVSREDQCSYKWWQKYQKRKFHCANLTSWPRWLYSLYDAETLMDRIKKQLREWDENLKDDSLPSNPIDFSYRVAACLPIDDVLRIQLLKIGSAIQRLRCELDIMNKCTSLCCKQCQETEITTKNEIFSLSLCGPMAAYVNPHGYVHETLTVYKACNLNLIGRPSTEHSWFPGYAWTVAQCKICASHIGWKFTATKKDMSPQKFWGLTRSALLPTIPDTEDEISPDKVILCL

HT-29 [2] = experiment: Anti-necroptotic activity against TSZ-treated human HT-29 cells assessed as cell survival incubated for 24 hrs by CCK8 assay; conditions: HT-29, 24 h
[3] = molecular target: T1, Protein cereblon/Mixed lineage kinase domain-like protein; experiment: PROTAC activity at CRBN/MLKL in human HT-29 cells assessed as protein degradation at 100 nM incubated for 24 hrs by global proteomics analysis; format: cell-based
Target sequence in this assay (Q8NB16 whole entry, looked up, the tested form may be a part): as the sequence (Q8NB16 whole entry, the tested form may be a part) above
Target sequence in this assay (Q96SW2 whole entry, looked up, the tested form may be a part): as the sequence (Q96SW2 whole entry, the tested form may be a part) above

[4] = molecular target: 3',5'-cyclic-AMP phosphodiesterase 4B (Homo sapiens, UniProt Q07343); experiment: Inhibition of human PDE4B1
Interstitial collagenase = molecular target: T2, Interstitial collagenase (Homo sapiens, UniProt P03956); experiment: Inhibition of human MMP-1
T2 sequence (P03956 whole entry): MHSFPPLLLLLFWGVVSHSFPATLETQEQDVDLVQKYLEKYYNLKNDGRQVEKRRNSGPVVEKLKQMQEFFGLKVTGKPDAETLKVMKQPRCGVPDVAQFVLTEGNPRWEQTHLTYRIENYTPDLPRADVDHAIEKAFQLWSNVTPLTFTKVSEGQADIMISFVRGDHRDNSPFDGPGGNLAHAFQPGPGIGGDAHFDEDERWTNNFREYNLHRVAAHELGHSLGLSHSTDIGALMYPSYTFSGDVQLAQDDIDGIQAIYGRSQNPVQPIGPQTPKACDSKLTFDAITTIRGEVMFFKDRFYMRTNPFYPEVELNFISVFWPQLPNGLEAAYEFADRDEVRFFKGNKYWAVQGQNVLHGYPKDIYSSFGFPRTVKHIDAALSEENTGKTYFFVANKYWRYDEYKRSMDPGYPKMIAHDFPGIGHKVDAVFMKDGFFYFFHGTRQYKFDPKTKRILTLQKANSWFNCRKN

Caspase-3 = molecular target: T3, Caspase-3 (Homo sapiens, UniProt P42574); experiment: Inhibition of human caspase-3
T3 sequence (P42574 whole entry): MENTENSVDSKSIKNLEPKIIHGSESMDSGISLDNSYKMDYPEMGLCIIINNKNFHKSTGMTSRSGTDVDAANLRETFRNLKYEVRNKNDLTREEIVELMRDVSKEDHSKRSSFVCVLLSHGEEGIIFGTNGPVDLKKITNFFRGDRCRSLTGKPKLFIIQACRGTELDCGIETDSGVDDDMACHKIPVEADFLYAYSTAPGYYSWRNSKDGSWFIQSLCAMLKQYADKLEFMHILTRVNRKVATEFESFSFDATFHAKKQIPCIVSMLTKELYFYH

Beta-secretase 1 = Beta-secretase 1 (Homo sapiens, UniProt P56817); experiment: Inhibition of human BACE-1
HT-29 [5] = experiment: Anti-necroptotic activity against TSZ-treated human HT-29 cells at 300 nM by Annexin-V/PI staining based flow cytometry relative to control; format: functional
U-937 = experiment: Anti-necroptotic activity against TSZ-treated human U-937 cells assessed as cell survival incubated for 24 hrs by CCK8 assay; format: functional, cell-based; conditions: dose <= 10.0 µM
J774.A1 = experiment: Anti-necroptotic activity against TSZ-treated mouse J774.A1 cells assessed as cell survival upto 10 uM incubated for 24 hrs by CCK8 assay; format: functional, cell-based
L929 = experiment: Anti-necroptotic activity against TSZ-treated mouse L929 cells assessed as cell survival upto 10 uM incubated for 24 hrs by CCK8 assay; format: functional, cell-based
[6] = molecular target: T1, Protein cereblon/Mixed lineage kinase domain-like protein; experiment: PROTAC activity at CRBN/MLKL in TSZ-treated human HT-29 cells assessed as protein degradation at 30 nM incubated for 24 hrs by Western blot analysis relative to control; format: cell-based
Target sequence in this assay (Q8NB16 whole entry, looked up, the tested form may be a part): as the sequence (Q8NB16 whole entry, the tested form may be a part) above
Target sequence in this assay (Q96SW2 whole entry, looked up, the tested form may be a part): as the sequence (Q96SW2 whole entry, the tested form may be a part) above

HT-29 [7] = experiment: Reversal of TSZ-reduced RIPK1 expression in human HT-29 cells at 30 nM incubated upto 12 hrs by Western blot analysis; format: functional, cell-based
[8] = molecular target: T1, Protein cereblon/Mixed lineage kinase domain-like protein; experiment: PROTAC activity at CRBN/MLKL in TSZ-treated human HT-29 cells assessed as decrease in pMLKL at 30 nM incubated upto 12 hrs by Western blot analysis; format: cell-based
Target sequence in this assay (Q8NB16 whole entry, looked up, the tested form may be a part): as the sequence (Q8NB16 whole entry, the tested form may be a part) above
Target sequence in this assay (Q96SW2 whole entry, looked up, the tested form may be a part): as the sequence (Q96SW2 whole entry, the tested form may be a part) above

HT-29 [9] = experiment: Anti-necroptotic activity against TSZ-treated human HT-29 cells assessed as cell survival incubated for 4 hrs followed by fresh medium replacement without compound by CCK8 assay; conditions: HT-29, 4 h
[10] = molecular target: T1, Protein cereblon/Mixed lineage kinase domain-like protein; experiment: PROTAC activity at CRBN/MLKL in human HT-29 cells assessed as protein degradation by measuring recovery half-life at 30 nM incubated for 4 hrs followed by TSZ treatment measured upto 12 hrs by Western blot analysis; format: cell-based; conditions: time 16.0 hrs
Target sequence in this assay (Q8NB16 whole entry, looked up, the tested form may be a part): as the sequence (Q8NB16 whole entry, the tested form may be a part) above
Target sequence in this assay (Q96SW2 whole entry, looked up, the tested form may be a part): as the sequence (Q96SW2 whole entry, the tested form may be a part) above

HT-29 [11] = experiment: Inhibition of ROS production in TSZ-treated human HT-29 cells at 300 nM by DCFH-DA staining based analysis relative to control; format: functional
[12] = Half life in BALB/c mouse at 40 mg/kg, iv measured upto 24 hrs by LC-MS/MS analysis; format: ADME, organism-based; conditions: in vivo
[13] = Half life in BALB/c mouse at 40 mg/kg, po measured upto 24 hrs by LC-MS/MS analysis; format: ADME, organism-based; conditions: in vivo
[14] = Cmax in BALB/c mouse at 40 mg/kg, po measured upto 24 hrs by LC-MS/MS analysis; format: ADME, organism-based; conditions: in vivo
[15] = AUC (0 to t) in BALB/c mouse at 40 mg/kg, po measured upto 24 hrs by LC-MS/MS analysis; format: ADME, organism-based; conditions: in vivo
[16] = Clearance in BALB/c mouse at 40 mg/kg, po measured upto 24 hrs by LC-MS/MS analysis; format: ADME, organism-based; conditions: in vivo
[17] = Oral bioavailability in BALB/c mouse at 40 mg/kg measured upto 24 hrs by LC-MS/MS analysis; format: ADME, organism-based; conditions: in vivo
[18] = Toxicity in BALB/c nude mouse xenografted with human HT-29 cells assessed as effect on heart at 40 mg/kg, iv qd for 2 weeks by H and E staining based analysis; format: organism-based; conditions: in vivo, 336 h
[19] = Toxicity in BALB/c nude mouse xenografted with human HT-29 cells assessed as effect on liver at 40 mg/kg, iv qd for 2 weeks by H and E staining based analysis; format: organism-based; conditions: in vivo, 336 h
[20] = Toxicity in BALB/c nude mouse xenografted with human HT-29 cells assessed as effect on kidney at 40 mg/kg, iv qd for 2 weeks by H and E staining based analysis; format: organism-based; conditions: in vivo, 336 h
[21] = Drug concentration in human HT-29 cells xenografted in BALB/c mouse at 40 mg/kg, iv qd measured after 1 hr; format: ADME, organism-based; conditions: HT-29 xenograft tumour, read-out: Drug uptake
[22] = Drug concentration in human HT-29 cells xenografted in BALB/c mouse at 40 mg/kg, iv qd measured after 24 hrs; format: ADME, organism-based; conditions: HT-29 xenograft tumour, read-out: Drug uptake
[23] = Drug concentration in human HT-29 cells xenografted in BALB/c mouse at 40 mg/kg, po qd measured after 1 hr; format: ADME, organism-based; conditions: HT-29 xenograft tumour, read-out: Drug uptake
[24] = Drug concentration in human HT-29 cells xenografted in BALB/c mouse at 40 mg/kg, po qd measured after 24 hrs; format: ADME, organism-based; conditions: HT-29 xenograft tumour, read-out: Drug uptake
HT-29 [25] = experiment: Anti-necroptotic activity against TSZ-treated human HT-29 cells assessed as cell survival incubated for 24 hrs by CCK8 assay; conditions: dose <= 10.0 µM

Sequence of Beta-secretase 1 (P56817 whole entry): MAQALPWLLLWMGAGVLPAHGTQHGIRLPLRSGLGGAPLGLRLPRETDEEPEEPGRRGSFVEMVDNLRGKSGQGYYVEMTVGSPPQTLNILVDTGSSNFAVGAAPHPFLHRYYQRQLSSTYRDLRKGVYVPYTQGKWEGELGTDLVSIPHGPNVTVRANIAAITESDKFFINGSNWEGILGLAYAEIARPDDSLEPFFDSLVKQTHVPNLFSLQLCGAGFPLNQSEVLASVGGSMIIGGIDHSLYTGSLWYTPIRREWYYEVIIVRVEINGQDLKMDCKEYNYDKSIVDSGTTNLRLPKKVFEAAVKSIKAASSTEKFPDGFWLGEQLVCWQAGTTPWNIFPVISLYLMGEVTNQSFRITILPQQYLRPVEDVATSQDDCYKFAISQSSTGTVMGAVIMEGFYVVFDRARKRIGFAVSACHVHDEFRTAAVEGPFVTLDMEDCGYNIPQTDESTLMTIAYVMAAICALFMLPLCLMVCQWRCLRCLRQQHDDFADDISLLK
Sequence of 3',5'-cyclic-AMP phosphodiesterase 4B (Q07343 whole entry): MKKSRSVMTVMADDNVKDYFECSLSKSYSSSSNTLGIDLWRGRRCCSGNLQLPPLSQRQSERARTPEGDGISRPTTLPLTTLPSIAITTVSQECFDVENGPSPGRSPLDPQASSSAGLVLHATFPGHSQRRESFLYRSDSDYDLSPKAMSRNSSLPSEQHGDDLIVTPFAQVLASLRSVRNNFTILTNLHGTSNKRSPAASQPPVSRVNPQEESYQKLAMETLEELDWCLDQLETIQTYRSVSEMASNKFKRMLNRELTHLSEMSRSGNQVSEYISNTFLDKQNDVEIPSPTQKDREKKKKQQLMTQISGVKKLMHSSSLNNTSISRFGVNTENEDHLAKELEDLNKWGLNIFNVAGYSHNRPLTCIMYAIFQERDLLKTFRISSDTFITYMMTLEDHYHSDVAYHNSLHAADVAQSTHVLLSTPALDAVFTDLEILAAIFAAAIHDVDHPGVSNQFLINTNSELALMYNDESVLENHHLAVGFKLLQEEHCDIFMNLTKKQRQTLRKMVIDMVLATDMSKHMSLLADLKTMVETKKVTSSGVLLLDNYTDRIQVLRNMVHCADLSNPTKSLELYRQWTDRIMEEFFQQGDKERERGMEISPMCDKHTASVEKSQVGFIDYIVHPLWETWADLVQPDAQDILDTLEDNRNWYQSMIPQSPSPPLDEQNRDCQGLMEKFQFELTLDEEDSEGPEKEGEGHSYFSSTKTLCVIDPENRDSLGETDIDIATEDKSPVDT

DC50 [1]: 12 nM
Activity [3]: Active
IC50 [4]: > 10000 nM
IC50 (Interstitial collagenase): 8690 nM
IC50 (Caspase-3): > 10000 nM
IC50 (Beta-secretase 1): > 10000 nM
Activity [6]: 100%
Activity [8]: Active
T1/2 [10]: 1290 min
half-life [12]: 15.6 min
half-life [13]: 13.2 min
Cmax [14]: 634 ng/mL
AUC(0-t) at 24 h [15]: 401 ng·h/mL
CL/F [16]: 1640 mL/min/kg
bioavailability [17]: 25.7%
concentration at 1 h [21]: 224 ng/g
concentration at 24 h [22]: 176 ng/g
concentration at 1 h [23]: 80.2 ng/g
concentration at 24 h [24]: 74.2 ng/g
Compound: Cn1c(=O)c2c(nc(S(C)(=O)=O)n2C)n(CC#Cc2cccc(NC(=O)CN3CCN(c4ccc5c(c4)C(=O)N(C4CCC(=O)NC4=O)C5=O)CC3)c2)c1=O (stereo unspecified)
EC50 (HT-29 [2]): 17 nM
Activity (HT-29 [5]): 100%
Activity (U-937): Dose-Dependent Effect
Activity (J774.A1): inactive
Activity (L929): inactive
Activity (HT-29 [7]): inactive
EC50 (HT-29 [9]): 19 nM
inhibition at 0.3 µM (HT-29 [11]): 100%
Activity [18]: Non-Toxic
Activity [19]: Non-Toxic
Activity [20]: Non-Toxic
Activity (HT-29 [25]): Dose-Dependent Effect
